{"source": "patent US5346693A", "about": "“Depigmenting cosmetic or dermatological composition containing arbutoside derivatives” (L'Oreal, priority 1991, dated 1994)", "origin": "cited, not measured here", "tested_on": "melanocyte"}
{"smiles": "Oc1ccc(O)cc1", "note": "[hydroquinone]", "values": [{"measurement": "cytotoxicity to the melanocyte", "value": "cytotoxic to the melanocyte"}]}
